“Also recorded” adds a separate entry of the source.
Assays:
Assay type in all cases: in vivo, human
plasma c-KIT (s-c-Kit) = test: Plasma c-KIT ELISA, baseline vs cycle 3 day 1 (C3D1), HCC patients
Experimental: Plasma samples were obtained from patients at the time of screening, C3D1, and at the end of treatment visit.
All six assays were sandwich immunoassays obtained from commercial sources. All assays were performed according to the manufacturers' protocols, as summarized below. All samples were assayed in duplicate and the average value was used for correlative analysis.
ELISA kits for VEGF (cat #DVE00), s-VEGFR-2 (cat #DVR200), HGF (cat #DHG00), and c-KIT (cat #DSCR00) were obtained from R&D Systems.
A monoclonal capture antibody specific to the target protein was provided pre-coated in microplate wells. Appropriately diluted samples and standards were pipetted into the wells, allowing capture of the target protein by the immobilized antibodies. Unbound sample was washed away, and a horseradish peroxidase-conjugated antibody also specific for the target protein was added to the wells. Wells were washed again, and a substrate solution was added to each well. The colored reaction product was measured spectrophotometrically and was translated to the quantity (pg/mL or ng/mL) of biomarker protein in the sample by use of a simultaneously generated standard curve.

plasma EGF = test: Plasma EGF level, baseline vs C3D1, HCC patients
[1] = system: hepatocellular carcinoma (HCC); test: Overall survival / time to progression in placebo-controlled HCC trial (SHARP), Cox multivariate analysis
From the text: Overall survival (OS) is defined as the time from randomization to death due to any cause. Overall survival (OS) of subjects alive at the time of analysis will be censored at their last date of follow-up.
Time to progression (TTP) is defined as the time from randomization to disease progression (radiological only). Patients without tumor progression at the time of analysis will be censored at their last date of tumor evaluation.

plasma bFGF = test: Plasma bFGF level, baseline vs C3D1, HCC patients
plasma VEGF = test: Plasma VEGF ELISA, baseline vs C3D1, HCC patients
plasma IGF-2 = test: Plasma IGF-2 level, baseline vs C3D1, HCC patients
plasma Ang2 = test: Plasma Ang2 level, baseline vs C3D1, HCC patients
plasma Ras p21 = test: Plasma Ras p21 ELISA, baseline vs C3D1, HCC patients; settings: for Ras p21 Δ from BL (e) / mean change in sorafenib arm: C3D1, mean of per-subject absolute change, p vs placebo 0.046
Experimental: ELISA kits for Ras p21 (cat #06490009) were from Oncogene Science Biomarker Group, part of Siemens Diagnostics, Cambridge, Mass. This assay detects all forms of circulating Ras p21 (H-Ras, N-Ras, and […]).
After washing, a streptavidin-horseradish peroxidase conjugate was added.

plasma HGF = test: Plasma HGF ELISA, baseline vs C3D1, HCC patients
[2] = plasma level, in response to sorafenib treatment
[3] = sorafenib arm, C3D1, mean of per-subject absolute change, p vs placebo <0.0001
[4] = sorafenib-treated HCC patients, C3D1 vs baseline

CNC(=O)c1cc(Oc2ccc(NC(=O)Nc3ccc(Cl)c(C(F)(F)F)c3)cc2)ccn1 [Sorafenib]
c-KIT Mean change in sorafenib arm (plasma c-KIT (s-c-Kit); [2]): −33.9% | c-KIT Δ from BL (e) (plasma c-KIT (s-c-Kit); [3]): -4.5 ng/mL | c-KIT Mean (d) (plasma c-KIT (s-c-Kit); sorafenib arm, C3D1, baseline mean 12.2): 8.6 ng/mL | Direction of change of plasma c-KIT in response to sorafenib (plasma c-KIT (s-c-Kit); [4]): attenuated; also recorded: decrease | EGF Δ from BL (e) (plasma EGF; sorafenib arm, C3D1, mean of per-subject absolute change, p vs placebo 0.240): -8.9 pg/mL | EGF Mean (d) (plasma EGF; sorafenib arm, C3D1, baseline mean 61.8): 53.4 pg/mL | Direction of change of plasma EGF in sorafenib (plasma EGF; [4]): decreases; also recorded: Mixed | time to progression and/or overall survival compared to placebo treated subjects ([1]; HCC patients): increases | Treatment HR for OS ([1]; multivariate analysis of all patients, sorafenib vs placebo, P-value 0.043): 0.779 | bFGF Δ from BL (e) (plasma bFGF; sorafenib arm, C3D1, mean of per-subject absolute change, p vs placebo 0.196): 2.5 pg/mL | Direction of change of plasma bFGF in sorafenib (plasma bFGF; [4]): None | VEGF Mean change in sorafenib arm (plasma VEGF; [2]): +195.7% | VEGF Δ from BL (e) (plasma VEGF; sorafenib arm, C3D1, mean of per-subject absolute change, p vs placebo 0.010): 66.8 pg/mL | VEGF Mean (d) (plasma VEGF; sorafenib arm, C3D1, baseline mean 100.7): 170.1 pg/mL | Direction of change of plasma VEGF in response to sorafenib (plasma VEGF; [4]): elevated; also recorded: increase | IGF-2 Mean change in sorafenib (plasma IGF-2; [2]): −11.3% | IGF-2 Δ from BL (e) (plasma IGF-2; sorafenib arm, C3D1, mean of per-subject absolute change, p vs placebo 0.145): -129.4 ng/mL | IGF-2 Mean (d) (plasma IGF-2; sorafenib arm, C3D1, baseline mean 938.8): 847.9 ng/mL | Direction of change of plasma IGF-2 in sorafenib (plasma IGF-2; [4]): decreases | Ang2 Δ from BL (e) (plasma Ang2; [3]): -293.0 pg/mL | Ang2 Mean (d) (plasma Ang2; sorafenib arm, C3D1, baseline mean 7510.0): 6456.4 pg/mL | Direction of change of plasma Ang2 in sorafenib (plasma Ang2; [4]): attenuated and remain unchanged and does not change significantly and None | Ras p21 Δ from BL (e) / mean change in sorafenib arm (plasma Ras p21; sorafenib arm): -259.8 pg/mL | Ras p21 Δ from BL (e) / mean change in sorafenib arm (plasma Ras p21; sorafenib arm, listed as sorafenib): -259.8 pg/mL | Ras p21 Mean (d) (plasma Ras p21; sorafenib arm, C3D1, baseline mean 2115.7): 1144.7 pg/mL | Direction of change of plasma Ras p21 in response to sorafenib (plasma Ras p21; [4]): attenuated; also recorded: decrease | median absolute change of plasma HGF levels (plasma HGF; intra-patient sorafenib-associated C3D1 change compared to baseline): -294.02 pg/mL | HGF Mean change in sorafenib arm (plasma HGF; [2]): −7.4% | HGF Δ from BL (e) (plasma HGF; [3]): -285.0 pg/mL | HGF Mean (d) (plasma HGF; sorafenib arm, C3D1, baseline mean 2630.0): 2220.3 pg/mL | Direction of change of plasma HGF in response to sorafenib (plasma HGF; [4]): attenuated; also recorded: decrease

Source: patent US20110257035A1, “IDENTIFICATION OF SIGNATURE GENES ASSOCIATED WITH HEPATOCELLULAR CARCINOMA” (Bayer Healthcare LLC, priority 2008, published 2011)
